Data set [1] has as its target T1, human cannabis CB1 receptor (Homo sapiens, UniProt P21554).
T1 construct: expressed in transfected cells; host or cells: human embryonic kidney (HEK) cells, Semliki Forest Virus system, membrane preparation
In words: CB1 receptor affinity, [3H]-CP-55,940 radioligand binding on HEK cell membranes. The method, then: The affinity of the compounds of the invention for cannabinoid CB1 receptors was determined using membrane preparations of human embryonic kidney (HEK) cells in which the human cannabis CB1 receptor is transiently transfected using the Semliki Forest Virus system in conjunction with [3H]-CP-55,940 as radioligand. After incubation of a freshly prepared cell membrane preparation with the [3H]-ligand, with or without addition of compounds of the invention, separation of bound and free ligand was performed by filtration over glassfiber filters. Radioactivity on the filter was measured by liquid scintillation counting.

The conditions of data set [2]: doses of 5, 10 and 20 mg daily; double blind placebo-controlled study; cited from earlier work.

Where two headings read alike, the source gives them in different places.

These results are taken from patent publication US7135488B2, “Pyrrolyl-thiazole derivatives” (Hoffmann-La Roche Inc., priority 2003, dated 2006).

T1 sequence (P21554 whole entry): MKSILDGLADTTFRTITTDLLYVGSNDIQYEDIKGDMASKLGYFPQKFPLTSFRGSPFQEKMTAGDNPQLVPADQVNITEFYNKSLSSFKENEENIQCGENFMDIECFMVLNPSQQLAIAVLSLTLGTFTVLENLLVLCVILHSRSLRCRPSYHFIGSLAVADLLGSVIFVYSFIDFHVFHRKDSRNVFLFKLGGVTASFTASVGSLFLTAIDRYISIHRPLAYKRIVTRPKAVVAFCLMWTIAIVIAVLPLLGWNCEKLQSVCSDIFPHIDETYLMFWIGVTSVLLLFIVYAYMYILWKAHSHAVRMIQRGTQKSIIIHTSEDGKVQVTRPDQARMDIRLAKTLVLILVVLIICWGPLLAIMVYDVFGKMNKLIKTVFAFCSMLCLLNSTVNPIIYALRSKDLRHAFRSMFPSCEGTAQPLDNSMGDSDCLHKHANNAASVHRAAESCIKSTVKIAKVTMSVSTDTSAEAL

Turning to `CCCCNC(=O)c1cc(-c2csc(-c3ccc(OC)cc3)n2)n(CC2CCCCC2)c1C` [Example 8, Cyclohexylmethyl-5-[2-(4-methoxy-phenyl)-thiazol-4-yl]-2-methyl-1H-pyrrole-3-carboxylic acid butylamide], the half-maximal inhibitory concentration (IC50) in data set [1] was below 2000 nM.

In the case of `Cc1c(C(=O)NN2CCCCC2)nn(-c2ccc(Cl)cc2Cl)c1-c1ccc(Cl)cc1` [SR 141716, Rimonabant], the “body weight compared to placebo” value in data set [2] was “significantly reduced body weight”.

Consider `COc1ccc(-c2nc(-c3cc(C(=O)NN4CCCCC4)c(C)n3CC3CCCCC3)cs2)cc1` [Example 299, Cyclohexylmethyl-5-[2-(4-methoxy-phenyl)-thiazol-4-yl]-2-methyl-1H-pyrrole-3-carboxylic acid piperidin-1-ylamide], for which the IC50 in data set [1] is below 2000 nM.

For the molecule `CCCCNC(=O)c1cc(-c2csc(C3CCCCC3)n2)n(CC2CCCCC2)c1C` [Example 375, Cyclohexylmethyl-5-(2-cyclohexyl-thiazol-4-yl)-2-methyl-1H-pyrrole-3-carboxylic acid butylamide], the concentration for half-maximal inhibition (IC50) in data set [1] was below 2000 nM.

In the case of `CCCCNC(=O)c1cc(-c2csc(-c3ccc(OC)cc3)n2)n(Cc2ccccc2)c1C` [Example 333, Benzyl-5-[2-(4-methoxy-phenyl)-thiazol-4-yl]-2-methyl-1H-pyrrole-3-carboxylic acid butylamide], the half-inhibitory concentration (IC50) in data set [1] is below 2000 nM.

In data set [1], `COc1ccc(-c2nc(-c3cc(C(=O)Nc4ccccc4)c(C)n3CC3CCCCC3)cs2)cc1` [Example 315, Cyclohexylmethyl-5-[2-(4-methoxy-phenyl)-thiazol-4-yl]-2-methyl-1H-pyrrole-3-carboxylic acid phenylamide] displayed a half-maximal inhibitory concentration (IC50) below 2000 nM.

With `COc1ccc(-c2nc(-c3cc(C(=O)N4CCCCC4)c(C)n3CC3CCCCC3)cs2)cc1` [Example 311, {1-Cyclohexylmethyl-5-[2-(4-methoxy-phenyl)-thiazol-4-yl]-2-methyl-1H-pyrrol-3-yl}-piperidin-1-yl-methanone], in data set [1], the IC50 was below 2000 nM.

For the molecule `COc1ccc(-c2nc(-c3cc(C(=O)NC4CCCCC4)c(C)n3CC3CCCCC3)cs2)cc1` [Example 356, Cyclohexylmethyl-5-[2-(4-methoxy-phenyl)-thiazol-4-yl]-2-methyl-1H-pyrrole-3-carboxylic acid cyclohexylamide], the IC50 in data set [1] is below 2000 nM.

As to `CCCCNC(=O)c1cc(-c2csc(-c3ccc(OC)cc3)n2)n(Cc2ccccn2)c1C` [Example 371, 5-[2-(4-Methoxy-phenyl)-thiazol-4-yl]-2-methyl-1-pyridin-2-ylmethyl-1H-pyrrole-3-carboxylic acid butylamide], in data set [1] (membranes of HEK cells transiently transfected with human CB1 receptor, radioligand [3H]-CP-55,940, read-out: IC50 (affinity for the CB1 receptor)), the concentration for half-maximal inhibition (IC50) was below 2000 nM.

Molecule `CCCCNC(=O)c1cc(-c2csc(-c3ccc([N+](=O)[O-])cc3)n2)n(CC2CCCCC2)c1C` [Example 1, Cyclohexylmethyl-2-methyl-5-[2-(4-nitro-phenyl)-thiazol-4-yl]-1H-pyrrole-3-carboxylic acid butylamide] had a melting point of 184 to 187 °C.

Regarding `CCCCNC(=O)c1cc(-c2csc(-c3ccc4c(c3)OCO4)n2)n(CC2CCCCC2)c1C` [Example 340, 5-(2-Benzo[1,3]dioxol-5-yl-thiazol-4-yl)-1-cyclohexylmethyl-2-methyl-1H-pyrrole-3-carboxylic acid butylamide], in data set [1], the IC50 is below 2000 nM.

In turn, `COc1ccc(-c2nc(-c3cc(C(=O)Nc4ncccn4)c(C)n3CC3CCCCC3)cs2)cc1` [Example 324, Cyclohexylmethyl-5-[2-(4-methoxy-phenyl)-thiazol-4-yl]-2-methyl-1H-pyrrole-3-carboxylic acid pyrimidin-2-ylamide] showed an IC50 in data set [1] below 2000 nM.

Molecule `COc1ccc(-c2nc(-c3cc(C(=O)NCc4ccccn4)c(C)n3CC3CCCCC3)cs2)cc1` [Example 305, Cyclohexylmethyl-5-[2-(4-methoxy-phenyl)-thiazol-4-yl]-2-methyl-1H-pyrrole-3-carboxylic acid (pyridin-2-ylmethyl)-amide] returned an IC50 in data set [1] below 2000 nM.
